Test results as given in patent publication US8691528B2, “Cell penetrating peptide” (Mitsubishi Tanabe Pharma Corporation, priority 2005, dated 2014).

Legend:
Assay type in all cases: cell-based
CHO cells [1] = experiment: Confocal microscopic analysis of translocation of fluorescence-labeled peptides into CHO cells; settings: Example 5-2; 50 μM to 12.5 μM (FIG. 19: 25 μM)
Description: (§1) Three kinds of cells were used for incorporating the peptides: CHO cells (ATCC NO. CCL-61), HeLa cells, and Jurkat cells. 10^4 CHO cells and HeLa cells and 10^5 Jurkat cells were separately inoculated to a 96-well plate, and cultured for 2 or 3 days. Subsequently, when the cells became confluent, each peptide solution was added to each type of cell, and the cells were incubated for 1 hour. After each type of cell was washed with PBS three times, 100 μL of 0.25% trypsin-1 mM EDTA solution was added, and trypsinization was performed at room temperature for 5 minutes. After 400 μL of PBS (10% FCS) was added to neutralize the trypsin, the cells were washed with 1 mL of HBSS (Hanks' Balanced Salt Solution/produced by Invitrogen) three times. After the washing, the cells were suspended in 50 μL of HBSS and analyzed using a confocal microscope. Measurements and analysis were performed using a confocal differential interference laser microscope system (Bio-Rad, Radience2100/Green He-Ne, 488 nm, microscope: Nikon, ECLIPSE E600).
Furthermore, CHO cells were inoculated to a slide chamber (produced by Nunc), 25 μM of each of the KSH1 peptide and positive control was added to the CHO cells, and the intracellular transferability thereof was determined using a confocal microscope.
For KSH2 to KSH10 (SEQ ID NOS:35 to 43 in the sequence listing), a test of translocation into CHO cells was performed in the same manner as Example 1-2, and confocal microscopic analysis was performed. Used for positive control were a PTD sequence derived from HIV TAT (SEQ ID NO:50 in the sequence listing) and the KSH1 peptide; used for negative control was a peptide sequence lacking intracellular transferability (SEQ ID NO:57 in the sequence listing).
In the confocal microscopic analysis, a background correction was performed using cells to which the negative control peptide (SEQ ID NO:57 in the sequence listing) had been added. Thereafter, the positive control PTD1 peptide (SEQ ID NO:50 in the sequence listing) was added, and fluorescence in the cells was examined.
Regarding novel PTD sequence, each peptide was analyzed in a series of 2-fold dilutions at three levels from 50 μM to 12.5 μM. […] The PTD candidate sequences identified here clearly retained the capability of intracellular translocation.

CHO cells [2] = experiment: Test of translocation of fluorescence-labeled peptides into CHO cells (FACS and confocal microscopic analysis)
Description: Each peptide solution, adjusted to 1 mM, was diluted with a medium to three levels, 100 μM, 50 μM, and 25 μM, and added to cells. Three kinds of cells were used: CHO cells, HeLa cells, and Jurkat cells. After each peptide solution was added, the cells were incubated for 1 hour. After the cells were washed with PBS three times, 100 μL of 0.25% trypsin-1 mM EDTA solution was added, and trypsinization was performed at room temperature for 5 minutes. After 400 μL of PBS (10% FCS) was added to stop the trypsinization, the cells were washed with 1 mL of HBSS three times. After the washing, the cells were suspended in 500 μL of PBS (10% FCS) and subjected to flowcytometry (hereinafter, FACS) analysis using FACS Calibur (Becton Dickinson).
Each peptide was synthesized, fluorescently labeled, purified and dissolved in the same manner as Example 1-2, a test of translocation into CHO cells was performed, and an evaluation was performed by confocal microscopic analysis and FACS. FACS analysis was performed in the same manner as Example 1-3. For the KSH1 peptide and modified PTD sequences, i.e., KSH1-1 to KSH1-9 peptides (SEQ ID NOS:1 to 9 in the sequence listing), fluorescence intensities determined by FACS analysis are shown in FIG. 6. The peptide addition concentrations were 50 μM, 25 μM, 12.5 μM and 6.5 μM.
To determine which amino acids are important to the intracellular translocation, comprehensive alanine substitution was performed on the basis of KSH1-1 to design KSH1-11 (SEQ ID NO:11 in the sequence listing) to KSH1-23 (SEQ ID NO:22 in the sequence listing) and KSH1-35 (SEQ ID NO:32 in the sequence listing) (FIG. 7). Each peptide was synthesized, fluorescently labeled, purified and dissolved in the same manner as Example 1-2, a test of translocation into CHO cells was performed, and an evaluation was performed by confocal microscopic analysis and FACS. FACS analysis was performed in the same manner as Example 1-3. For KSH1 and modified PTD sequences, i.e., KSH11-11 to 23 and KSH1-35, fluorescence intensities determined by FACS analysis are shown in FIG. 8. The peptide addition concentrations were 50 μM, 25 μM, 12.5 μM and 6.5 μM.
(§2) Each peptide was synthesized, fluorescently labeled, purified and dissolved in the same manner as Example 1-2, a test of translocation into CHO cells was performed, and an evaluation was performed by confocal microscopic analysis and FACS analysis. FACS analysis was performed in the same manner as Example 1-3. For KSH1 and modified PTD sequences, i.e., KSH11-24 to 1-26 and KSH1-28 to 1-30, fluorescence intensities determined by FACS analysis are shown in FIG. 10. The peptide addition concentrations were 50 μM, 25 μM, 12.5 μM and 6.5 μM.
as §2, with “KSH1-27, KSH1-33, KSH1-34” for “KSH11-24 to 1-26”, “KSH1-36,” for “KSH1-28 to 1-30,”, “12.” for “10.”
Each peptide was synthesized, fluorescently labeled, purified and dissolved in the same manner as Example 1-2, and an intracellular translocation test in CHO cells was performed by FACS analysis. Used for positive control were a PTD sequence derived from HIV TAT ([…] in the sequence listing) and the KSH1 peptide; used for negative control was a peptide sequence lacking intracellular transferability (SEQ ID NO:57 in the sequence listing).

HeLa cells = experiment: Confocal microscopic analysis of intracellular translocation of synthetic peptides in HeLa cells; settings: confocal microscopic analysis
Description: as §1
In HeLa cells as with CHO cells, intracellular translocation experiments of synthetic peptides of modified PTD sequences were performed by confocal microscopic analysis.

Jurkat cells = experiment: Confocal microscopic analysis of intracellular translocation of synthetic peptides in Jurkat cells
Description: as §1
In Jurkat cells as well, intracellular translocation experiments of synthetic peptides of modified PTD sequences were performed by confocal microscopic analysis.

[3] = 50 μM, 25 μM, 12.5 μM and 6.5 μM

KSH6: novel PTD sequence from the 7-time-concentrated library of Jurkat cells (LITKQYRYPSRRRFN; Designed peptide to act as PTD(Protein Transduction Domain))
intracellular translocation profile compared with PTD1 (CHO cells [1]): better intracellular translocation profiles than PTD1

KSH3: novel PTD sequence from the 7-time-concentrated library of Jurkat cells (IPSRWKDQFWKRWHY; Designed peptide to act as PTD(Protein Transduction Domain))
intracellular translocation profile compared with PTD1 (CHO cells [1]): better intracellular translocation profiles than PTD1

KSH7: novel PTD sequence from the 7-time-concentrated library of Jurkat cells (QQHLLIAINGYPRYN; Designed peptide to act as PTD(Protein Transduction Domain))
intracellular translocation profile compared with PTD1 (CHO cells [1]): better intracellular translocation profiles than PTD1

KSH10: novel PTD sequence from the 7-time-concentrated library of Jurkat cells (KRPTMRFRYTWNPMK; Designed peptide to act as PTD(Protein Transduction Domain))
intracellular translocation profile compared with PTD1 (CHO cells [1]): better intracellular translocation profiles than PTD1

KSH1-8: tryptophan cluster form with lysine substituted with arginine (RLWMRWYSPWTRRYG; Designed peptide to act as PTD(Protein Transduction Domain))
intracellular translocation compared with KSH1 (in words) (CHO cells [2]; [3]): clearly accentuated intracellular translocation | intracellular translocation (in words) (CHO cells [2]; at 25 μM or less): accentuated | intracellular translocation (in words) (CHO cells [2]; at 50 μM): decreased | intracellular translocation in HeLa cells (modified peptides with better translocation) (HeLa cells): better intracellular translocation | intracellular translocation in Jurkat cells as compared to that of SEQ ID NO:37 (Jurkat cells): better intracellular translocation

KSH1-20: alanine substitution form of KSH1-1 (RLWMRWYSPATRRYG; Designed peptide to act as PTD(Protein Transduction Domain))
contribution of the alanine-substituted amino acid to the intracellular translocation (CHO cells [2]; comprehensive alanine substitution on the basis of KSH1-1): minor contribution | intracellular translocation in HeLa cells (modified peptides with better translocation) (HeLa cells): better intracellular translocation | intracellular translocation in Jurkat cells as compared to that of SEQ ID NO:37 (Jurkat cells): better intracellular translocation

KSH1-33: 13th arginine substituted with alanine and 10th threonine substituted with arginine (RLWMRWYSPRTRAYG; Designed peptide to act as PTD(Protein Transduction Domain))
intracellular translocation compared with KSH1 (in words) (CHO cells [2]; [3]): clearly accentuated intracellular translocation | intracellular translocation compared with KSH1-1 (in words) (CHO cells [2]; [3]): nearly equivalent or more than KSH1-1 | intracellular translocation in HeLa cells (modified peptides with better translocation) (HeLa cells): better intracellular translocation | intracellular translocation in Jurkat cells as compared to that of SEQ ID NO:37 (Jurkat cells): better intracellular translocation

KSH4: novel PTD sequence from the 7-time-concentrated library of Jurkat cells (KNAWKHSSCHHRHQI; Designed peptide to act as PTD(Protein Transduction Domain))
intracellular translocation profile compared with PTD1 (CHO cells [1]): better intracellular translocation profiles than PTD1
